Reference: patent publication US8614068B2, “Process for producing hepcidin” (Hellenic Pasteur Institute, priority 2007, dated 2013)
pIC50: −log10 of the molar value. Ends that are not written are not given here.

Experiments:
TfR1 = assay: Western blot of TfR1 expression in macrophages; type: cell-based, murine; conditions: RAW 264.7, 10 μM, 4 h at 37° C.
Experimental: (§1) A, RAW 264.7 macrophages were treated with 11 μM and 10 μM of synthetic hepcidin-25 (having the sequence of SEQ ID NO. 2) and Hep-25His (having the sequence of SEQ ID NO. 6) for 4 h at 37° C. or with PBS as negative control. Cell lysates were subjected to 8% SDS PAGE and Western Blot with antibodies against TfR1, Ferroportin and actin as loading control. B, The signal density of ferroportin, TfR1 and actin protein bands from two independent experiments were quantified by densitometry and their intensity relative to actin was calculated. […] Hep25-His, negative peptide and PBS was incubated with Raw 264.7 macrophages, followed by cross-linking with DSS. Cell lysates were incubated with Ni2-NTA and eluates were analyzed by Western blot using anti-FPN1 Ab. […] HEK293-Fpn cells were induced with ponasterone for 24 h and then treated with Hep25-His or synthetic hepcidin 25 (s. Hep25) for 3 h. Fluorescence was visualized with a Leica TCS confocal microscope.
Western blotting—1×10^6 cells (RAW 264.7, THP-1 or J774) were plated in […] plates and after 12-20 h cells were treated with hepcidins in serum-free DMEM for 4 h, at 37° C. Afterwards, cells were re-suspended in lysis buffer (1% Triton, 25 mM Hepes pH 7.4, 150 mM NaCl, 10% Glycerol, 5 mM EDTA, 0.5 mM PMSF, protein inhibitors (Roche, Mannheim, Germany) and quantified by Bradford assay (Biorad, Hercules, Calif.). 30 μg of cell lysate was analyzed on 8% SDS-PAGE. Proteins were transferred to Hybond C nitrocellulose membrane (Amersham Biosciences, Piscataway, N.J.) and the membranes were incubated with the primary antibodies rabbit anti-ferroportin (Alpha Diagnostics, San Antonio, Tex.), mouse anti-TfR1 (Zymed, Invitrogen, Carlsbad, Calif.) and mouse anti-β actin (Santa Cruz Biotech, Santa Cruz, Calif.), in a dilution of 1:1000, overnight at 4° C. […] Specific signal was detected with a chemiluminescence assay kit (ECL, Amersham Biosciences, Piscataway, N.J.). The bands were quantified by densitometry using the Quantity-One (Biorad, Hercules, Calif.) software. […]

bacteria ML35p = conditions: at 30 μM concentration; cited from earlier work
ferroportin (FPN1) = molecular target: T1, ferroportin (FPN1) (Mus musculus, UniProt Q9JHI9); assay: Western blot of ferroportin expression in macrophages; type: cell-based, murine; conditions: data not shown
T1 construct: endogenous in cells; host or cells: RAW 264.7 murine macrophages
T1 sequence (Q9JHI9 1-570): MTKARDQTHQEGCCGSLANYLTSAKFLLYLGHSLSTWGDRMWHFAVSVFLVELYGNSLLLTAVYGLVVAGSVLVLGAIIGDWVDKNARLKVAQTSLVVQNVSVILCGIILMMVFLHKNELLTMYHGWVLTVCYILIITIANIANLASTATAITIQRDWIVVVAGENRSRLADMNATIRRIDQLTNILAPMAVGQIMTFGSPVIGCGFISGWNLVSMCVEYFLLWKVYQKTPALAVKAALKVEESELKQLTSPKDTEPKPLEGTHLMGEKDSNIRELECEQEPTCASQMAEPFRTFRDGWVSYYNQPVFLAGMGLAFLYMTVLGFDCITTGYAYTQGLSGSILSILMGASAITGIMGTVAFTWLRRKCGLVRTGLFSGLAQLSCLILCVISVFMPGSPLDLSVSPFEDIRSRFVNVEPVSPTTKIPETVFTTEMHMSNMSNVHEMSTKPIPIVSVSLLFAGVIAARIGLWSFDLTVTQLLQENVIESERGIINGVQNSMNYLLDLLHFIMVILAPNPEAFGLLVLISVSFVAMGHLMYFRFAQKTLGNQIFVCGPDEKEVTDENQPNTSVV
Experimental: as §1
Western blotting—1×10^6 cells (RAW 264.7, THP-1 or J774) were plated in […] plates and after 12-20 h cells were treated with hepcidins in serum-free DMEM for 4 h, at 37° C. Afterwards, cells were re-suspended in lysis buffer (1% Triton, 25 mM Hepes pH 7.4, 150 mM NaCl, 10% Glycerol, 5 mM EDTA, 0.5 mM PMSF, protein inhibitors (Roche, Mannheim, Germany) and quantified by Bradford assay (Biorad, Hercules, Calif.). 30 μg of cell lysate was analyzed on 8% SDS-PAGE. Proteins were transferred to Hybond C nitrocellulose membrane (Amersham Biosciences, Piscataway, N.J.) and the membranes were incubated with the primary antibodies rabbit anti-ferroportin (Alpha Diagnostics, San Antonio, Tex.), mouse anti-TfR1 (Zymed, Invitrogen, Carlsbad, Calif.) and mouse anti-β actin (Santa Cruz Biotech, Santa Cruz, Calif.), in a dilution of 1:1000, overnight at 4° C. After washing, the membranes were incubated with anti-rabbit and anti-mouse secondary antibodies conjugated with HRP, in a dilution of 1:5000 (DakoCytomation, Carpinteria, Calif.), for 1 h at room temperature. Specific signal was detected with a chemiluminescence assay kit (ECL, Amersham Biosciences, Piscataway, N.J.). The bands were quantified by densitometry using the Quantity-One (Biorad, Hercules, Calif.) software. Data are shown as means±SD. Statistical analysis was performed by student t-Test.

Experimental for E. coli strain ML35: Antimicrobial activity of recombinant tagged hepcidins. E. coli strain ML35 was subjected to CFU assay in order to determine the antimicrobial activity of synthetic hepcidin 25 (s. Hep25) having the sequence os SEQ ID NO. 2, Hep-25His having the sequence of SEQ ID NO. 6, Hep-25MycHis having the sequence of SEQ ID NO. 8, Hep-20MycHis having the sequence of SEQ ID NO. 7 and negative peptide having the sequence SEQ ID NO. 9 at the concentrations indicated for 2 h at 37° C. Sodium phosphate buffer was used as negative control.
Antimicrobial assay—All purified recombinant hepcidins were tested for antibacterial activity against E. coli ML35 and BL21(DE) is a CFU assay (Porter E. M., van Dam E., Valore E. V., Ganz T., Broad-spectrum antimicrobial activity of human intestinal defensin 5, Infect. Immun. 65 (1997) 2396-2401.). Bacterial cell cultures were grown to OD600=0.2 (5×10^7 cfu/ml) and resuspended to a final concentration of 10^6 cfu/ml in 20mM sodium phosphate buffer, pH7.4. Various concentrations of peptides were added to a final volume of 100 μl and after incubation for 2 h at 37° C., surviving cells were plated in triplicates to LB/agar plates.
Antimicrobial activity of recombinant hepcidins—The colony forming unit assay (E. M. Porter, E. van Dam, E. V. Valore, T. Ganz, Broad-spectrum antimicrobial activity of human intestinal defensin 5, Infect. Immun. 65 (1997) 2396-2401) was used to determine the antimicrobial activity of the purified recombinant hepcidin forms against the E. coli strain, ML35. […] Surviving microbes were counted following incubation with various concentrations of recombinant hepcidin preparations, synthetic hepcidin or negative peptide for 2 h at 37° C.

Compound: CC[C@H](C)[C@@H]1NC(=O)[C@@H](NC(=O)[C@@H](NC(=O)[C@@H]2CCCN2C(=O)[C@H](Cc2ccccc2)NC(=O)[C@H](Cc2c[nH]cn2)NC(=O)[C@@H](NC(=O)[C@@H](N)CC(=O)O)[C@@H](C)O)[C@@H](C)CC)CSSC[C@@H](C(=O)N[C@@H](CCCCN)C(=O)N[C@H](C(=O)O)[C@@H](C)O)NC(=O)[C@@H]2CSSC[C@H](NC(=O)[C@H](Cc3ccccc3)NC1=O)C(=O)N[C@H]1CSSC[C@H](NC(=O)[C@H](CCCCN)NC(=O)[C@H](CO)NC(=O)[C@H](CCCNC(=N)N)NC(=O)[C@H](Cc3c[nH]cn3)NC(=O)[C@@H]3CSSC[C@H](NC(=O)CNC1=O)C(=O)N3)C(=O)NCC(=O)N[C@@H](CCSC)C(=O)N2 [synthetic hepcidin 25, hepcidin 25, reference compound]
- pIC50 (E. coli strain ML35; ML35, 2 h): 5.05
- reduction of TfR1 in comparison to untreated cells (TfR1): 37%±6

Compound: hep20: hepcidin 20 as tested by Park et al. 2001 (ICIFCCGCCHRSKCGMCCKT; ends and bridges not checked; cysteine pairing not given here; UniProt P81172 65-84, looked up)
- reduction of surviving bacteria ML35p (bacteria ML35p): 1000 fold

Compound: hep25: hepcidin 25 as tested by Park et al. 2001 (natural, isolated from urine, or synthetic) (DTHFPICIFCCGCCHRSKCGMCCKT; ends and bridges not checked; cysteine pairing not given here; UniProt P81172 60-84, looked up)
- reduction of surviving bacteria ML35p (bacteria ML35p): 1000 fold

Compound: hepcidin-20 (ICIFCCGCCHRSKCGMCCKT; listed as Homo sapiens)
- concentration at which bactericidal (E. coli strain ML35; CFU assay, 2 h at 37° C., data not shown): higher than 10 mM

Compound: oligomeric fraction of Hep25-His: oligomer peak of Ni-NTA purified Hep-25His from size exclusion chromatography
- effect on cellular iron metabolism (ferroportin (FPN1)): no effect
